Data: paper PMC9820444, “Design and Synthesis of Acridine-Triazole and Acridine-Thiadiazole Derivatives and Their Inhibitory Effect against Cancer Cells” (International Journal of Molecular Sciences, 2022)
Like-named read-outs stand apart in the source and are kept apart here. Marks after values point to notes of the source that are not given here.

Columns and labels:
[1] = test system: human foreskin fibroblasts (HFF); test: MTT antiproliferative assay, HFF; type: cell-based; conditions: read-out: Effect against cell viability (IC50), HFF
Protocol: (§1) All newly synthesized acridinyl derivatives (4–6) were screened for their anticancer activities in comparison to the reference compounds, 5-FU and cis-platinum. Compounds 4–6 were tested for their in vitro antitumor activities against HFF, MGC-803, BEL-7404, NCI-H460, and T24 tumor cell lines, and human normal liver cells (LO2), and the results are shown in Table 1. Most of the compounds had strong selective potency against MGC-803 and T24 cancer cells. […] In the T24 cell line assay, many compounds, especially the series of compound 4, had significant activity against T24. This implies that there is a significant increase in potency after the introduction of the aroyl thiourea group. […] To our delight, most 1,2,4-triazolethiones (5) and 1,2,4-thiadiazoles (6) have low toxicity to LO2 compared with the positive control.
(§2) Test samples, including compounds 4–6 and commercial classical anticancer drugs (5-FU and cis-platinum), were screened for their anti-cancer activity against HFF human foreskin fibroblast cells, MGC-803 human gastric cancer cells, BEL-7404 human hepatocellular carcinoma cells, NCI-H460 human large cell carcinoma cells, and T24 human bladder carcinoma cells using the 3-(4,5-dimethylthiazol-2-yl)-2,5-diphenyltetrazoliumbromide (MTT) assay method cited in the literature. The initial concentration of all the test samples was 100 μg/mL, which was serially diluted in complete medium with ten-fold dilutions to give six concentrations per compound. Their cytotoxicity was determined in 96-well flat bottomed microtiter plates. All the test samples were tested in triplicate. The results were expressed as the drug concentration that inhibited cell growth by 50% as compared to the controls (IC50). The IC50 values were calculated from regression lines obtained from the percent cell growth inhibition plotted as a function of the logarithm of the dose.

[2] = test system: human gastric cancer cells-803 (MGC-803); test: MTT antiproliferative assay, MGC-803; type: cell-based; conditions: read-out: Effect against cell viability (IC50), MGC-803
Protocol: as §1, §2

[3] = test system: hepatocellular carcinoma bel-7404 (BEL-7404); test: MTT antiproliferative assay, BEL-7404; type: cell-based, human; conditions: read-out: Effect against cell viability (IC50), BEL-7404
Protocol: as §1, §2

[4] = test system: large cell lung cancer cells (NCI-H460); test: MTT antiproliferative assay, NCI-H460; type: cell-based, human; conditions: read-out: Effect against cell viability (IC50), NCI-H460
Protocol: as §1, §2

[5] = test system: bladder cancer cells (T24); test: MTT antiproliferative assay, T24; type: cell-based, human; conditions: read-out: Effect against cell viability (IC50), T24
Protocol: as §1, §2

[6] = test system: human normal liver cells (LO2); test: Cytotoxicity against normal liver cells LO2; type: cell-based; conditions: MTT, read-out: Effect against cell viability (IC50), LO2
Protocol: as §1, §2

T24 cells [7] = test: Apoptosis by Annexin V-FITC/PI flow cytometry, T24; type: cell-based, human; conditions: T24, at IC50 concentration (4h 8.05 μM; 6h 8.93 μM); control 1.18%
Protocol: (§3) The apoptosis ratios of MGC80-3 or T24 cell lines induced by the selected compounds at the concentration of IC50 and 0.5 IC50 were quantitatively determined by flow cytometry. Four quadrant images (Q1, Q2, Q3 and Q4) were observed by flow cytometric analysis. The results of apoptosis ratios (including the early and late apoptosis ratios) after 12 h are presented in Figure 6 (MGC80-3) and Figure 7 (T24). […] After treatment with compound 6h, 5.62% (3.43 μM) and 14.25% (6.85 μM) of the cells were apoptotic. These were higher percentages than the one observed in the control (0.586%). […] The results evidently illustrate that representative compounds 5d and 6h or 4h and 6h could suppress cell proliferation by inducing apoptosis in the early apoptotic period.
(§4) The apoptosis assay and the cell cycle analysis were carried out by cytometry (FACSVerse, BD, Piscataway, NJ, USA) at an excitation wavelength of 488 nm according to the method described in the literature with slight modifications. The cells were seeded at 2 × 10^6/well and washed by cold PBS. The buffer solutions were prepared using 0.1 M pH 7.4 Hepes/NaOH, 1.4 M NaCl, and 25 mM CaCl2.

T24 cells [8] = test: Cell cycle analysis by flow cytometry, T24; type: cell-based, human; conditions: T24, 8.05 μM (IC50), 48 h; control 22.89%
Protocol: (§5) Compared to control, both compounds 4h and 5d interfered with the cell cycles of T24 and MGC80-3 cells, respectively.
as §4

zebrafish embryos = test system: zebrafish embryos; set-up: mortality rate of zebrafish embryos: dose or concentration left out as unconfirmed; conditions: for MAR (malformation rate) / MOR (mortality rate): zebrafish embryos 72 hpf
Protocol: In this experiment, 2% DMSO was used to dissolve the target products, and the abnormal rate (MAR) and mortality rate (MOR) of zebrafish embryos (72 hpf) were used for statistics.
The zebrafish embryos were collected at 6 hpf and randomly divided into naive control (embryos maintained in distilled water), vehicle control (embryos treated with 2% DMSO), and drug groups. Stock solutions of all drugs were prepared in 2% DMSO as a solubilizing agent and diluted to three concentrations (0.5 mg/mL, 1 mg/mL, and 2 mg/mL). Each group had 20 embryos per test concentration. […] Each compound was evaluated in three independent biological experiments.

[9] = test system: subintestinal veins (SIVs) in zebrafish embryos; test: Zebrafish angiogenesis assay (subintestinal veins, NBT/BCIP staining); type: in vivo; conditions: 1 mg/mL; for area of the meshed pattern vessel and number of vascular branches in the network: zebrafish embryos, compared with blank control group
Excerpt: Currently, the zebrafish has emerged as a valuable model organism to substitute traditional models for studying angiogenesis inhibitors. The genes of zebrafish show 70–80% similarity to humans, and the vascular structure of zebrafish has high similarity to that of other vertebrates. Therefore, the subintestinal veins (SIVs) in the zebrafish embryos are used as evaluation indicators for anti-angiogenesis inhibitors. In this study, NBT/BCIP vascular staining was used to observe the angiogenesis effect of representative drugs (4h, 4f, 5d, 5h, 6g and 6h) in a zebrafish model. […] Compared with the blank control group, the area of the meshed pattern vessel and the number of vascular branches in the network decreased after the administration of compounds 4h, 5d, 5h and 6h.
The 24 hpf zebrafish embryos were dechorionated with a 1 gL^−1 pronase treatment and maintained in distilled water in 12-well cell culture plates (each well contained 20 embryos). A negative control group containing zebrafish embryos in distilled water and a vehicle treatment group that was treated with 2% dimethyl sulfoxide (DMSO) were prepared. The anti-angiogenic compounds were diluted to 1 mg/mL. After incubating at 28 °C for […], the embryos were immersed in 4% paraformaldehyde and dehydrated by gradient ethanol. Subsequently, the embryos were balanced in NTMT buffer (5 M NaCl + 1 M Tris [pH 9.0–9.5] + 1 M MgCl2+ 10% Tween), and nitrotetrazolium blue chloride (NBT) and p-toluidine salt (BCIP) staining were performed. To evaluate the effect of compounds on the angiogenesis of zebrafish embryos, the growth of embryonic sub-intestinal veins (SIVs) at 72 hpf was observed using an IX71 Olympus microscope (Hamburger, Germany). The length of the SIVs was calculated using the image J 1.8.0 software (Bethesda, MD, USA).

MGC80-3 cells [10] = test: Apoptosis by Annexin V-FITC/PI flow cytometry, MGC80-3; type: cell-based, human; conditions: for apoptosis percentage (early and late): control 0.586%
Protocol: as §3, with “The results of apoptosis ratios (including the early and late apoptosis ratios) after 12 h are presented in Figure 6 (MGC80-3) and Figure 7 (T24).” left out
as §4

MGC80-3 cells [11] = test: Cell cycle analysis by flow cytometry, MGC80-3; type: cell-based, human; conditions: MGC80-3, 5.52 μM (IC50), 48 h; control 8.91%
Protocol: as §5, §4

## COc1ccc(C(=O)NNC(=S)Nc2c3ccccc3nc3ccc(C)cc23)cc1 [4h, 1-2′-methyl acridinyl-3-4’-methoxy benzoyl thiosemicarbazides]
[1]
  IC50: > 100 µM
[2]; MTT
  IC50: 11.2 ± 1.46 µM
[3]
  IC50: 27.1 ± 2.91 µM
[4]
  IC50: 25.4 ± 3.16 µM
[5]
  IC50: 8.05 ± 1.06 µM
[6]
  IC50: 9.01 ± 0.93 µM
T24 cells [7]
  apoptosis ratio: 12.377%
T24 cells [8]
  S phase population: 30.04%
Zebrafish embryos; 1 mg/mL
  MAR (malformation rate): 35% ^a
  MOR (mortality rate): 15% ^a
Zebrafish embryos; 1.5 mg/mL
  MAR (malformation rate): 85% ^a
  MOR (mortality rate): 15% ^a
Zebrafish embryos; 2 mg/mL
  MAR (malformation rate): 35% ^a
  MOR (mortality rate): 65% ^a
Zebrafish embryos; zebrafish embryos, 2.0 mg.L^−1
  total mortality and malformation rate: 100%
[9]
  area of the meshed pattern vessel and number of vascular branches in the network: decreased

## COc1ccc2nc3ccccc3c(-n3c(-c4ccc([N+](=O)[O-])cc4)n[nH]c3=S)c2c1 [5d, 4-(2-methoxyacridin-9-yl)-5-(4-nitrophenyl)-2,4-dihydro-3H-1,2,4-triazole-3-thione]
[1]; Homo sapiens, Fibroblast
  IC50: 62.9 ± 1.9 µM
[2]; Homo sapiens, MGC-803, MTT
  IC50: 5.52 ± 1.04 µM
[3]; Homo sapiens
  IC50: 25.1 ± 2.89 µM
[4]; Homo sapiens
  IC50: 19.4 ± 1.58 µM
[5]; Homo sapiens
  IC50: 15.9 ± 1.38 µM
[6]; Homo sapiens
  IC50: 51.8 ± 3.46 µM
MGC80-3 cells [10]; MGC80-3, 0.5 IC50 (5d 2.76 μM; 6h 3.43 μM)
  apoptosis percentage (early and late): 6.616%
MGC80-3 cells [10]; MGC80-3, IC50 (5d 5.52 μM; 6h 6.85 μM), 24 h, control 93.0%
  Q4 (live) cells: 81.2%
MGC80-3 cells [10]; MGC80-3, IC50 (5d 5.52 μM; 6h 6.85 μM)
  apoptosis percentage (early and late): 17.51%
MGC80-3 cells [11]
  G2 phase population: 13.32%
Zebrafish embryos
  mortality rate of zebrafish embryos: ~0%
Zebrafish embryos; 2.0 mg.L^−1
  malformation rate of zebrafish embryos: less than 15%
Zebrafish embryos; 1 mg/mL
  MAR (malformation rate): 5% ^b
  MOR (mortality rate): 0%
Zebrafish embryos; 1.5 mg/mL
  MAR (malformation rate): 10% ^a
  MOR (mortality rate): 0%
Zebrafish embryos; 2 mg/mL
  MAR (malformation rate): 10% ^c
  MOR (mortality rate): 0%
[9]; 72 hpf zebrafish embryos
  reduction in the vessel length (SIVs) compared to the mean vessel length for the controls: ~50%
[9]
  area of the meshed pattern vessel and number of vascular branches in the network: decreased
